Data taken from PubChem BioAssay AID2305 (GlaxoSmithKline (GSK), 2010).
pIC50: −log10 of the molar value. “And” between values parts separate entries of the source, which are not always exact repeats. Equal entries are not always repeated.

Tested on: P. falciparum 3D7 growth, pLDH absorbance
Test: blood-stage malaria parasite growth potency – strain 3D7, dose response (AID 2305)

Compound	pIC50
OCCN1CCN(Cc2ccc(-c3ccc(-c4nc5ccc(F)cc5[nH]4)cc3)cc2)CC1	6.24
COc1cc(Cl)c(C)cc1-n1cc(C(=O)c2cc(Br)ccc2O)cc(C#N)c1=O	6.06
CNC(=O)C1Cc2c([nH]c3ccc(Cl)cc23)C2(CCN(CCc3ccccc3)CC2)N1 (stereo not given)	6.05
CCN1CCN(c2ccc(NC(=O)c3cc4c(C)nn(-c5ccccc5)c4s3)cc2C)CC1	6.12
Clc1ccc(-c2cc(-c3csc(NCCN4CCCCC4)n3)on2)cc1	6.00
CCCC(=O)c1c(O)c2ccccc2oc1=O	6.59
COc1ccc(N(c2nc(-c3cc(Cl)ccc3Cl)cs2)C2CCNCC2)cc1	5.96
COc1ccc(CCNC(=O)c2ccccc2O)cc1-c1ccc(C(C)(C)C)cc1	6.25
O=C(/C=C/c1ccc(Cl)c(Cl)c1)NCCCCCN1CCC(CCNC(=O)c2snnc2-c2ccccc2)CC1	6.09
COc1ccc(C=CC(=O)NC2CCC(CN3CCC(c4c[nH]c5ccccc45)CC3)CC2)cc1 (stereo not given)	6.11 and 6.09
O=C(Nc1ccnc(N2CCCN(Cc3cccc(O)c3)CC2)c1)c1ccc(F)cc1	5.83
COC(=O)/C=C/C(=O)N[C@@H]1CC[C@@]2(O)[C@H]3Cc4ccc(O)c5c4[C@@]2(CCN3CC2CC2)[C@H]1O5	6.19
CN(C)CCNCc1ncsc1-c1ccc2c(Nc3ccc(F)cc3Cl)ccnc2c1	5.83
CCCN(Cc1nnc(-c2cccs2)o1)C(=O)C1COc2ccccc2O1 (stereo not given)	6.07
N#Cc1cccc(NC(=O)Nc2cccc(-c3ccc(-c4nc5ccc(C(F)(F)F)cc5[nH]4)cc3)c2)c1	6.60
c1ccc(CNCc2cccc(-c3csc(-c4nc5ccccc5[nH]4)c3)c2)cc1	6.34
CCN1CCN(CCCNc2c3ccccc3nc3ccccc23)CC1	6.10
CCN(CC1CCN(CC2(O)CCOCC2)CC1)c1cc(C)nc(Nc2ccc(Cl)cc2)n1	6.39
CC(C)CNCc1ccc(-c2cccc(CN(C(=O)CCC3CCCC3)C3CCN(Cc4ccccc4)CC3)c2)cc1	6.10
c1ccc(CCNCc2cccc(-c3ccccc3CNCc3ccc4c(c3)OCO4)c2)nc1	6.01
COc1ccc2nccc([C@@H](O)CN3CCC(NCc4cc5ccc(C#N)cc5[nH]4)CC3)c2c1	7.00
O=[N+]([O-])c1cccc(CNCC2CCN(Cc3ccc(-c4ccccc4)cc3)CC2)c1	6.60
Fc1ccc2nc(-c3ccc(-c4ccc(CN5CCC(CCN6CCCCC6)CC5)cc4)cc3)[nH]c2c1	6.89
Cc1cc(-c2ccc(CNC3Cc4ccccc4C3)cc2)ccc1S(=O)(=O)NCCN1CCCC1	6.15

Compound	pIC50
CCc1ccc(-n2c(=O)c3cccnc3n2CC(=O)NC2CCCC2)cc1	6.04
COc1ccc(-c2nc(NC(=O)Cc3ccc(OC)c(OC)c3)sc2C)cc1	5.94
Cc1c(Cc2ccccc2Cl)cnc2nc(N)nc(N)c12	8.00
CS(=O)(=O)NCCCNCc1ccc(-c2cccc(-c3nc4ccc(C(F)(F)F)cc4[nH]3)c2)cc1	6.07
Cc1nc(N)nc(N)c1C#CC1CCCC1	6.11
c1cc(CNCC2CCN(CC3CCCCC3)CC2)cc(-n2ccnc2)c1	6.27
COc1ccccc1CN1CCC(NC(=O)c2ccc(-c3cccc(Cl)c3)s2)CC1	5.85
Cc1ccc(Nc2nc(NN=Cc3cccc([N+](=O)[O-])c3)nc(Nc3ccccc3)n2)c(C)c1	6.20
O=C(NCCCCCN1CCCN(C(=O)Nc2ccc(F)c(C(F)(F)F)c2)CC1)[C@@H]1C[C@H]1c1ccc(Cl)c(Cl)c1	5.99
CC[C@H]1CN2CC[C@@H]1C[C@H]2[C@H](O)c1cc(N2CCSCC2)nc2ccc(OC)cc12	6.70
COc1ccc2nccc([C@@H](O)CN3CCC(NC[C@H](Cc4ccccc4)NC(=O)OC(C)(C)C)CC3)c2c1	6.64
C/C=C1/CN2CC[C@H]1C[C@H]2[C@H](O)c1ccnc2ccc(O)cc12	6.31
CN(C(=O)C1(c2ccc(Cl)cc2)CC1)C1CCN(CCCCCNC(=O)/C=C/c2ccc(Cl)c(Cl)c2)CC1	6.11
CCOc1ccc(-c2nc3ccc(-c4nc5ccc(N6CCN(C)CC6)cc5[nH]4)cc3[nH]2)cc1	6.96
COc1cc(CNc2ncc(-c3ccsc3)c(-c3nccs3)n2)cc(OC)c1	6.89
CC1(C)N=C(N)N=C(N)N1c1cccc(Cl)c1	7.40
Clc1cc(Nc2ccnc3ccc(Br)cc23)ccc1Oc1ccc2ccccc2c1Cl	6.14
NC(=NCc1ccccc1)Nc1cccc(Cc2ccccc2)n1	6.07
O=S(=O)(NCCN1CCCC1)c1ccc(-c2cccc(CNCCc3cccs3)c2)s1	6.15
COc1cc(NC(=O)c2cccs2)c(C(=O)NCc2ccc(C)cc2)cc1OC	5.87
COc1ccc(NC(=O)c2ccc(-c3ccc(-c4cccnc4)cc3)c(C)c2)cc1OCCN(C)C	6.70
CCNc1cc(C(=O)N[C@@H](Cc2ccccc2)[C@H](O)CNCc2ccc3c(c2)OCCO3)cc(N2CCCCS2(=O)=O)c1	5.87
Cc1cccc2[nH]c(-c3cccc(-c4ccc(C(=O)NCc5nccn5C)cc4)c3)nc12	5.88
CCC(C)NC(=O)Nc1cccc(-c2cccc(-c3nc4c(C)cccc4[nH]3)c2)c1 (stereo not given)	6.09

Compound	pIC50
Cc1cc(=O)[nH]c(-n2nc(C)cc2NC(=O)C(c2ccccc2)c2ccccc2)n1	6.08
COc1cc(N)c(Cl)cc1C(=O)NCC1CCN(c2nc(C)cc(C)n2)CC1	6.29
N#Cc1cc(C(=O)c2cc(Br)ccc2O)cn(C2CCCCC2)c1=O	6.04
OCCN1CCN(Cc2cccc(-c3ccc(-c4nc5ccc(C(F)(F)F)cc5[nH]4)s3)c2)CC1	7.05
Cc1nn(CCOC(=O)NC(NCC2COc3ccccc3O2)C(Cl)(Cl)Cl)cc1[N+](=O)[O-] (stereo not given)	6.04
O=C(NCC1CC1)C1Cc2c([nH]c3ccc(Br)cc23)C2(CCN(CCc3ccccc3)CC2)N1 (stereo not given)	6.04
CCC(C)c1cccc(C(C)CC)c1OCCCON1C(N)=NC(N)=NC1(C)C (stereo not given)	7.70
Oc1ccc(CCNc2nc(NCc3ccccc3-c3cccc(Cl)c3)nc(N3CCNCC3)n2)cc1	5.89
CC(C)(C)c1ccc(CNC(=O)/C=C/c2ccc(-c3nc4ccc(C(C)(C)C)cc4[nH]3)cc2)cc1	6.27
CCCC1(NC[C@@H](O)[C@H](Cc2ccccc2)NC(=O)c2cc(NCC)cc(N3CCCCS3(=O)=O)c2)CC1	5.97
COc1cc2nc(Cl)nc(Nc3ccncc3)c2cc1OC	5.92
Cc1ccccc1N1CCN(c2ccc(C(=O)NC3CC3)cn2)CC1	6.34
OC(Cn1ccnc1)(c1ccc(Cl)cc1Cl)C1CCCCC1 (stereo not given)	6.01
CCc1cc(OC)ccc1C1CCN(CCCCNC(=O)c2ccc(NC(=O)c3ccc(Cl)cc3)cc2)CC1	5.97
Cc1cc(=O)c(-c2ccc(OCCSc3ccc(C(F)(F)F)cn3)cc2)c(C)[nH]1	6.28
Cc1ccc2c(C3=CCN(CCCCC4(C)C(=O)Nc5ccccc54)CC3)c(C)[nH]c2c1 (stereo not given)	6.43
NC(=O)c1ccccc1OCC(=O)Nc1cccc(-c2ccc(-c3nc4ccccc4[nH]3)cc2)c1	6.10
CCC[C@@H]([C@@H](CC1CCCCC1)C(=O)N[C@H](C(=O)Nc1nccs1)C(C)(C)SC)N(O)C=O	6.82
CC(=O)N[C@H](C(=O)Nc1ccc(-c2cccc(-c3nc4c(C)cccc4[nH]3)c2)cc1)C(C)C	5.96
COc1cccc(C(=O)NC(NC(=S)Nc2ccc(OC)cc2[N+](=O)[O-])C(Cl)(Cl)Cl)c1 (stereo not given)	6.12
CCCC(=O)NC(c1ccc(C(C)C)cc1)c1ccc2cccnc2c1O (stereo not given)	6.03
O=C(NCCCN(Cc1ccc(F)cc1)c1ccccn1)C(c1cc2ccccc2o1)N1CCN(C(c2ccccc2)c2ccccc2)CC1 (stereo not given)	6.08
